According to patent US11298314B2, “Injectable composition for localized fat reduction without pain, edema, and side effects, and method for preparing same” (AMI PHARM CO., LTD., priority 2017, dated 2022):
“Also recorded” adds a separate entry of the source.

Tested on: 3T3-L1 adipocytes
Assay: Lipolysis assay (glycerol release)
Assay type: cell-based
Conditions: 48 hours; listed as PPC single
Method: The glycerol activity assay was performed with the test materials to determine whether the cell death in the MTT assay was due to necrosis or lipolysis. Glycerol is a specific marker that increases when fat breaks down. Abcam Lipolysis Assay Kit (Colorimetric) was used according to the manufacturer's manual, and the method of the test was as follows: […] And then the lysis was induced. […] After adding the glycerol assay complex (50 μl) thereto, the solution was incubated at room temperature for 30 minutes. Absorbance was measured at OD 570 (using standard curve for absolute determination).

Substance: 1,2-diacyl-sn-glycero-3-phosphocholine [PPC]
- glycerol release / cytolytic activity: slightly higher cytolytic activity than at 24 hours; also recorded: slightly higher cytolytic activity than that of 24 hours
